From patent US6660879B2, “3-aryl-2-hydroxypropionic acid derivative I” (AstraZeneca AB, priority 1998, dated 2003)

Tested on: obese diabetic mice of the Umeå ob/ob strain
Experiment: Biological activity in obese diabetic ob/ob mice (plasma glucose, insulin, triglycerides; weight gain)
Assay type: in vivo
Settings: gavage once daily for 7 days
Method: The biological activity of the compound of the invention was tested in obese diabetic mice of the Umea ob/ob strain. Groups of mice received the test compound by gavage once daily for 7 days. On the last day of the experiment the animals were anesthetized 2h after dose in a non-fed state and blood was collected from an incised artery. Plasma was analyzed for concentration of glucose, insulin and triglycerides. A group of untreated obese diabetic mice of the same age served as control. The weight of the mice was measured before and after the experiment and the obtained weight gain was compared to the weight gain of the control animals. The individual values for glucose, insulin and triglyceride levels of the mice from the test group were expressed as the percent rage of the corresponding values from the control group.
The desired “therapeutic effect” was calculated as the average percent reduction of the three variables glucose, insulin and triglycerides below the levels in the control animals. The therapeutic effect of the tested compounds according to the invention was compared to the same effect in the prior art compound troglitazone, administrered by gavage in the oral dose of 100 μmol/kg for 7 days.

weight gain compared to the weight gain of the control animals (weight measured before and after the experiment): without undesirable weight gain
Structure (SMILES): CCO[C@@H](Cc1ccc(OCCc2ccc(OS(C)(=O)=O)cc2)cc1)C(=O)O [Example 1, (S)-2-Ethoxy-3-[4-(2-{4-methanesulfonyloxyphenyl}ethoxy)phenyl]propanoic acid]
therapeutic effect (average percent reduction of glucose, insulin and triglycerides below the levels in the control animals) (plasma 2h after last dose, non-fed, compared to troglitazone given in the same oral dose (100 μmol/kg for 7 days)): superior effects
